In US20250375452A1 (AMGEN INC., priority 2021, published 2025):

What was measured:
[1] = Phase 1 fixed-sequence study, sotorasib with omeprazole under fasted conditions; type: in vivo, human
[2] = Phase 1 fixed-sequence crossover study, sotorasib with famotidine or omeprazole under fed conditions; type: in vivo, human; conditions: for decrease of sotorasib AUC / decrease of sotorasib Cmax: fed conditions
Description: Safety and tolerability monitoring was performed throughout the study.
A total of […] healthy subjects (1 woman and 13 men) were enrolled in the study. Thirteen out of the 14 subjects received all treatments and completed the study.

[3] = Phase 1 fixed-sequence study, sotorasib with rifampin; type: in vivo, human
[4] = test system: extracellular signal-regulated kinase (ERK); conditions: preclinical studies; cited from earlier work
[5] = Phase 1 fixed-sequence study, digoxin with sotorasib; type: in vivo, human
Description: Blood samples for digoxin PK were collected predose and up to 144 hours post-digoxin dose. Samples were measured using validated high-performance liquid chromatography tandem mass spectrometry methods.

[6] = Phase 1 fixed-sequence study, midazolam with sotorasib; conditions: 2 mg midazolam coadministered with 960 mg sotorasib after 14 days of daily sotorasib vs midazolam alone, 5 subjects
[7] = coadministration with omeprazole vs sotorasib alone, fasted state
[8] = famotidine 10 hours prior to and 2 hours after a single dose of sotorasib
[9] = repeat doses of omeprazole with a single dose of sotorasib
[10] = coadministration with a single dose of sotorasib vs digoxin alone
[11] = with sotorasib vs digoxin alone

In the case of `C=CC(=O)N1CCN(c2nc(=O)n(-c3c(C)ccnc3C(C)C)c3nc(-c4c(O)cccc4F)c(F)cc23)[C@@H](C)C1` (atropisomer, axis not shown) [sotorasib, 6-fluoro-7-(2-fluoro-6-hydroxyphenyl)-(1M)-1-[4-methyl-2-(propan-2-yl)pyridin-3-yl]-4-[(2S)-2-methyl-4-(prop-2-enoyl)piperazin-1-yl]pyrido[2,3-d]pyrimidin-2(1H)-one], the safety and tolerability ([1]; coadministered with 40 mg omeprazole or administered alone, healthy subjects) is reported as “safe and well tolerated”, the “decrease of sotorasib AUCinf” value [1, 7] is reported as 42% and the “decrease of sotorasib Cmax” value [1, 7] is reported as 57%. The “Mean terminal half-life (t1/2), coadministration compared to alone” value ([1]; with omeprazole vs sotorasib alone, fasted) was “similar”, the safety and tolerability ([2]; 960 mg sotorasib with single dose 40 mg famotidine and after multiple daily 40 mg omeprazole, fed, healthy subjects) was “safe and well tolerated” and the “decrease of sotorasib AUC” value [2, 8] was 38%. For the same compound, the “decrease of sotorasib Cmax” value [2, 8] was 35%, the “decrease of sotorasib AUC” value [2, 9] was 57% and the “decrease of sotorasib Cmax” value [2, 9] was 65%. For the same compound, the safety and tolerability ([3]; coadministered with 600 mg rifampin or administered alone, healthy subjects) was “safe and well tolerated”, the CYP3A4 substrate status ([3]; inferred from multiple doses of rifampin, consistent with in vitro data) was “is a CYP3A4 substrate” and the OATP1B1 substrate status ([3]; inferred from single dose of rifampin) was “not a substrate of OATP1B1”. For the same compound, the “decrease of sotorasib AUCinf” value ([3]; multiple doses of rifampin) was 51%, the “decrease of sotorasib Cmax” value ([3]; multiple doses of rifampin) was 35% and the “phosphorylation of extracellular signal-regulated kinase (ERK)” value [4] was “inhibited nearly all detectable phosphorylation”.
For `C[C@H]1O[C@@H](O[C@H]2[C@@H](O)C[C@H](O[C@H]3[C@@H](O)C[C@H](O[C@H]4CC[C@@]5(C)[C@H](CC[C@@H]6[C@@H]5C[C@@H](O)[C@]5(C)[C@@H](C7=CC(=O)OC7)CC[C@]65O)C4)O[C@@H]3C)O[C@@H]2C)C[C@H](O)[C@@H]1O` [digoxin], the “increase of digoxin AUCinf” value [5, 10] was “approximately 21%”, the “increase of digoxin Cmax” value [5, 10] was about 91% and the safety and tolerability ([5]; single doses of 0.5 mg digoxin alone or coadministered with 960 mg sotorasib) was “safe and well tolerated”. The “Digoxin mean terminal half-life (t1/2), coadministration compared to alone” value [5, 11] was “similar” and the “Digoxin median time to maximal plasma concentration (tmax), coadministration compared to alone” value [5, 11] was “similar”.
In the case of `Cc1ncc2n1-c1ccc(Cl)cc1C(c1ccccc1F)=NC2` [midazolam], the “decrease of midazolam AUV” value [6] is reported as 53% and the “decrease of midazolam Cmax” value [6] is reported as 48%.
